From ChEMBL document CHEMBL1201862, “PubChem BioAssay data set” (2004)
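Assay format: 96-well plates, 48-hour exposure. At the GI50, growth is halved.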 Activity calls are given as the source filed them. Cut-off read from the data, not from the text of the source: active = GI50 up to about 1.1 µM and inactive = higher.

Tests used:
Assay in all cases: inhibition of tumour cell growth, NCI panel, 48 h
KM12 = test system: KM12
UACC-257 = test system: UACC-257
RPMI-8226 = test system: RPMI-8226
MCF7 = test system: MCF7
OVCAR-3 = test system: OVCAR-3
HOP-62 = test system: HOP-62
MDA-MB-435 = test system: MDA-MB-435
LOX IMVI = test system: LOX IMVI
NCI/ADR-RES = test system: NCI/ADR-RES
CAKI-1 = test system: CAKI-1
OVCAR-5 = test system: OVCAR-5
COLO 205 = test system: COLO 205
MOLT-4 = test system: MOLT-4
SF-268 = test system: SF-268
HCT-116 = test system: HCT-116
SW-620 = test system: SW-620
A549 = test system: A549
SR = test system: SR
SK-MEL-2 = test system: SK-MEL-2
NCI-H522 = test system: NCI-H522

Structure (SMILES)	GI50 (KM12)	GI50 (UACC-257)	GI50 (RPMI-8226)	GI50 (MCF7)	GI50 (OVCAR-3)	GI50 (HOP-62)	GI50 (MDA-MB-435)	GI50 (LOX IMVI)	GI50 (NCI/ADR-RES)	GI50 (CAKI-1)	GI50 (OVCAR-5)	GI50 (COLO 205)	GI50 (MOLT-4)	GI50 (SF-268)	GI50 (HCT-116)	GI50 (SW-620)	GI50 (A549)	GI50 (SR)	GI50 (SK-MEL-2)	GI50 (NCI-H522)
C=CCCCC1(C)CCCCNC1=O (stereo not drawn)	> 10 µM (inactive)	> 10 µM (inactive)	> 10 µM (inactive)	> 10 µM (inactive)	> 10 µM (inactive)	> 10 µM (inactive)	> 10 µM (inactive)	> 10 µM (inactive)	> 10 µM (inactive)	> 10 µM (inactive)	> 10 µM (inactive)	> 10 µM (inactive)	> 10 µM (inactive)	> 10 µM (inactive)	> 10 µM (inactive)	> 10 µM (inactive)	> 10 µM (inactive)	> 10 µM (inactive)	> 10 µM (inactive)	–
O=C1CC(c2ccc(Cl)cc2)C2(C(=O)NC(=S)NC2=O)C(c2ccc(Cl)cc2)C1 (stereo not drawn)	18.5 µM (inactive)	18.5 µM (inactive)	20.6 µM (inactive)	17.3 µM (inactive)	17.4 µM (inactive)	26.8 µM (inactive)	19.5 µM (inactive)	28.3 µM (inactive)	20.8 µM (inactive)	25.1 µM (inactive)	19.6 µM (inactive)	16.8 µM (inactive)	25.5 µM (inactive)	16.2 µM (inactive)	18.7 µM (inactive)	21.5 µM (inactive)	26.9 µM (inactive)	30.3 µM (inactive)	17.3 µM (inactive)	–
CCn1c(-c2ccc(/N=N/Nc3ccc(-c4n[nH]c(=S)n4CC)cc3)cc2)n[nH]c1=S	2.44 µM (inactive)	3.15 µM (inactive)	1.92 µM (inactive)	3.33 µM (inactive)	2.26 µM (inactive)	2.74 µM (inactive)	2.45 µM (inactive)	3.46 µM (inactive)	28.8 µM (inactive)	2.7 µM (inactive)	–	2.69 µM (inactive)	2.17 µM (inactive)	3.24 µM (inactive)	3.55 µM (inactive)	4.8 µM (inactive)	3.56 µM (inactive)	3.47 µM (inactive)	1.68 µM (inactive)	1.67 µM (inactive)
COC(=O)C1c2cc3c(c(O)c2CCC1(C)O)C(=O)c1c(O)cc2c(c1C3=O)OC1OC2(C)C(O)C(N(C)C)C1O (stereo not drawn)	0.345 µM (active)	0.108 µM (active)	–	0.8 µM (active)	0.0991 µM (active)	0.254 µM (active)	1.01 µM (active)	0.226 µM (active)	1.61 µM (inactive)	< 0.01 µM (active)	0.263 µM (active)	0.36 µM (active)	0.121 µM (active)	0.906 µM (active)	0.245 µM (active)	0.14 µM (active)	0.186 µM (active)	< 0.01 µM (active)	4.76 µM (inactive)	1.1 µM (active)
COC1=N[C@H](C(C)C)C(OC)=N[C@H]1Cc1ccc(C[C@@H]2N=C(OC)[C@@H](C(C)C)N=C2OC)s1	38.6 µM (inactive)	26.3 µM (inactive)	–	20.3 µM (inactive)	58.9 µM (inactive)	54.8 µM (inactive)	33.1 µM (inactive)	48.6 µM (inactive)	52.6 µM (inactive)	50.2 µM (inactive)	17.5 µM (inactive)	22.1 µM (inactive)	20 µM (inactive)	67.8 µM (inactive)	31 µM (inactive)	39.9 µM (inactive)	29 µM (inactive)	19.5 µM (inactive)	14.3 µM (inactive)	23.7 µM (inactive)
Cc1cc(-c2ccc(Cl)cc2)c(C#N)c(=S)n1C1OC(CO)C(O)C(O)C1O (stereo not drawn)	> 100 µM (inactive)	> 100 µM (inactive)	–	> 100 µM (inactive)	> 100 µM (inactive)	> 100 µM (inactive)	> 100 µM (inactive)	> 100 µM (inactive)	> 100 µM (inactive)	> 100 µM (inactive)	> 100 µM (inactive)	> 100 µM (inactive)	> 100 µM (inactive)	> 100 µM (inactive)	> 100 µM (inactive)	> 100 µM (inactive)	> 100 µM (inactive)	> 100 µM (inactive)	> 100 µM (inactive)	> 100 µM (inactive)
N=C(NCc1ccccc1)N/N=C\c1ccnc2ccccc12	15.9 µM (inactive)	2.35 µM (inactive)	1.29 µM (inactive)	11.7 µM (inactive)	11.6 µM (inactive)	16 µM (inactive)	9.23 µM (inactive)	11.5 µM (inactive)	15.8 µM (inactive)	–	13.4 µM (inactive)	1.71 µM (inactive)	12.6 µM (inactive)	12.3 µM (inactive)	–	14.8 µM (inactive)	15 µM (inactive)	2.09 µM (inactive)	9.73 µM (inactive)	–
CC(=O)OC(=C(C#N)C#N)c1nccnc1C(C)=O	4.98 µM (inactive)	> 20 µM (inactive)	–	> 20 µM (inactive)	14.6 µM (inactive)	–	> 20 µM (inactive)	> 20 µM (inactive)	> 20 µM (inactive)	> 20 µM (inactive)	> 20 µM (inactive)	4.55 µM (inactive)	> 20 µM (inactive)	3.59 µM (inactive)	–	> 20 µM (inactive)	11.9 µM (inactive)	18.5 µM (inactive)	> 20 µM (inactive)	19.2 µM (inactive)
COC([C@@H](OC(=O)c1ccccc1)[C@H](OC(=O)c1ccccc1)C(O)COC(=O)c1ccccc1)n1cc(C)c(=O)[nH]c1=O (stereo partly drawn)	–	34.2 µM (inactive)	> 100 µM (inactive)	13 µM (inactive)	20.3 µM (inactive)	35.3 µM (inactive)	20 µM (inactive)	15.1 µM (inactive)	28.6 µM (inactive)	–	19.1 µM (inactive)	22 µM (inactive)	3.6 µM (inactive)	29.7 µM (inactive)	23.6 µM (inactive)	21.3 µM (inactive)	16.4 µM (inactive)	29.7 µM (inactive)	25.7 µM (inactive)	20.4 µM (inactive)
Oc1nc(-c2cccc(F)c2)nc2ccccc12	> 79.6 µM (inactive)	> 91.6 µM (inactive)	–	87.1 µM (inactive)	> 54.2 µM (inactive)	22.5 µM (inactive)	> 86.1 µM (inactive)	> 100 µM (inactive)	45.5 µM (inactive)	> 100 µM (inactive)	> 100 µM (inactive)	> 100 µM (inactive)	> 100 µM (inactive)	27.1 µM (inactive)	27.2 µM (inactive)	> 87.7 µM (inactive)	51.6 µM (inactive)	> 77.3 µM (inactive)	41 µM (inactive)	43.9 µM (inactive)
Cc1cc(C)c(C#N)c(SC(=S)NC(=O)c2ccccc2)n1	> 100 µM (inactive)	> 100 µM (inactive)	> 100 µM (inactive)	> 100 µM (inactive)	–	> 100 µM (inactive)	> 100 µM (inactive)	–	> 100 µM (inactive)	> 100 µM (inactive)	> 100 µM (inactive)	> 100 µM (inactive)	> 100 µM (inactive)	> 100 µM (inactive)	> 100 µM (inactive)	> 100 µM (inactive)	> 100 µM (inactive)	> 100 µM (inactive)	> 100 µM (inactive)	> 100 µM (inactive)
COc1ccccc1N1CCN(Cn2c(=O)oc3cccnc32)CC1	–	> 100 µM (inactive)	> 100 µM (inactive)	> 100 µM (inactive)	> 100 µM (inactive)	> 100 µM (inactive)	> 100 µM (inactive)	> 100 µM (inactive)	> 100 µM (inactive)	> 100 µM (inactive)	> 100 µM (inactive)	–	> 100 µM (inactive)	> 100 µM (inactive)	56.4 µM (inactive)	36.4 µM (inactive)	> 100 µM (inactive)	40.3 µM (inactive)	> 100 µM (inactive)	> 100 µM (inactive)
CC1CC[C@@]2(OC1)O[C@H]1[C@H](O)[C@H]3[C@@H]4CC[C@H]5C[C@@H](OC6OC(CO)C(OC7OC(CO)C(O)C(OC8OCC(O)C(O)C8O)C7OC7OC(CO)C(O)C(O)C7OC7OC(CO)C(O)C(O)C7O)C(O)C6O)[C@H](O)C[C@]5(C)[C@H]4CC[C@]3(C)[C@H]1[C@@H]2C (stereo partly drawn)	4.29 µM (inactive)	> 10 µM (inactive)	2.15 µM (inactive)	2.82 µM (inactive)	2.85 µM (inactive)	> 10 µM (inactive)	> 10 µM (inactive)	> 10 µM (inactive)	> 10 µM (inactive)	> 10 µM (inactive)	> 10 µM (inactive)	> 10 µM (inactive)	0.144 µM (active)	> 10 µM (inactive)	4.59 µM (inactive)	> 10 µM (inactive)	3.47 µM (inactive)	–	> 10 µM (inactive)	2.78 µM (inactive)
O=C(NCCNCCO)N/N=C/c1ccc([N+](=O)[O-])cc1	> 100 µM (inactive)	> 100 µM (inactive)	–	48.9 µM (inactive)	> 100 µM (inactive)	> 100 µM (inactive)	> 100 µM (inactive)	–	> 100 µM (inactive)	> 100 µM (inactive)	> 100 µM (inactive)	> 100 µM (inactive)	> 100 µM (inactive)	> 100 µM (inactive)	> 100 µM (inactive)	> 100 µM (inactive)	> 100 µM (inactive)	> 100 µM (inactive)	49.8 µM (inactive)	> 100 µM (inactive)
